Assay [1] relates to healthy human prostate epithelial cells (RWEP-1). Briefly: Cell proliferation test, neutral red release method, media M1-M3. Type of assay: cell-based. To be noted: RWEP-1, media M1, M2 or M3, 24 hours. As for the experimental part: (§1) • Healthy human prostate epithelial cells (RWEP-1, ATCC No. CRL-11609) • Human prostate carcinoma (22Rv1 ATCC No. CRL-2505) Culture: • 37° C., 5% CO2, 95% humidity
(§2) • Keratinocyte-serum free medium (KSFM) (Invitrogen, 17005-042) • Epidermal Growth Factor, 5 ng/ml (Invitrogen, 10450-013) • Bovine pituitary extract, 0.05 mg/ml (Invitrogen, 13028-014) • Penicillin 50 IU/ml-streptomycin 50 μg/ml 10 (v/v, Invitrogen 15070-063) Medium M2=Medium recommended for tumor cells (22Rv1): • RPMI 1640 medium (Invitrogen, 31870-025) • Decomplemented fetal calf serum, 10% (v/v Invitrogen 10270-098) • L-Glutamine, 1% (v/v Invitrogen 25030-024) • Penicillin 50 IU/ml-streptomycin 50 μg/ml 1 (v/v, • Invitrogen 15070-063) Medium M3=Mixed medium: • Whole keratinocyte-serum free medium, 50% (v/v) • Whole RPMI 1640 medium, 50% (v/v) […]
(§3) After 24 hours of growth, the healthy and tumoral cell lines were incubated in the presence of β-sitosterol (reference product) at 8 concentrations (see paragraph b) above) or of CPE at 8 concentrations (see paragraph b) above). […] The amount of stain incorporated into the cells is measured by spectro-photometric reading at 540 nm and is directly pro-portional to the number of live cells. The results were expressed as a percentage of inhibition relative to the untreated control.

In assay [2] the test system is human prostate carcinoma (22Rv1). The description is as above. Type of assay: cell-based. To be noted: 22Rv1, media M1, M2 or M3, 24 hours. As for the experimental part: as §1, §2, §3
For assay [3], the system named is coculture of 22Rv1 and RWEP-1 cells. Briefly: Anti-galectin 8 immunolabeling of treated coculture. Type of assay: cell-based, human. To be noted: medium M3, 2.5×10^−4% and 1.2×10^−4%. Here is the method: As a result, an anti-galectin 8 human monoclonal antibody (R&D Systems, Ref: MAB1305) was selected to specifically fluorescence-label the human prostate tumor cell line.
The healthy and tumoral cells were inoculated in coculture, at a rate of 30 000 cells per well for each cell line, in the selected medium for obtaining uniform and specific labeling of the tumoral cells.
After 24 hours in an incubator at 37° C. and 5% CO2 of saturated humidity, the coculture was incubated in the presence of β-sitosterol at two concentrations and of CPE also at two concentrations.
At the end of the incubation time with the products, the cell lawns were fixed in alcohol/acetic acid and then labeled with the anti-galectin 8 human monoclonal antibody for 1 hour. […] After intensive washing with PBS, the labeled cell lawns were observed using a Nikon DXM1200F camera driven by LUCIA 6.0 software. All the images were taken under the same conditions and with identical camera settings.
For the experiment, in order to improve the intensity of this immunolabeling and for better visual rendering quality, the concentration of the anti-galectin 8 primary antibody was increased from 1/50th to 1/20th. Furthermore, this primary antibody was incubated overnight at +4° C. for better fixing of the antibody and thus for better labeling intensity. […]

The source of these data is patent publication US8435576B2, “Use of cocoa polyphenols for treating a prostate hyperplasia, a specific cocoa extract and applications” (Barry Callebaut AG, priority 2005, dated 2013).

Take `CC[C@H](CC[C@@H](C)[C@H]1CC[C@H]2[C@@H]3CC=C4C[C@@H](O)CC[C@]4(C)[C@H]3CC[C@]12C)C(C)C` [β-sitosterol]: the Inhibition of proliferation result in assay [1] and in assay [2] was “weak inhibition of proliferation” in each case. In assay [3], the “Area of labeling (anti-galectin 8 and Hoechst)” value was “equivalent to that of the untreated proliferation control”.
